Assay results as given in patent US11759471B2, “Modified release pharmaceutical composition and method for the treatment of mental disorders” (MEDICAL AND PHARMACEUTICAL INDUSTRY TECHNOLOGY AND …, priority 2019, dated 2023).

Legend:
[1] = as measured by blood concentration; cited from earlier work
[2] = In vitro dissolution test, USP Apparatus 2 (paddle); assay type: physicochemical; conditions: FIG. 1, 3 mg paliperidone in raw form
Protocol: In vitro dissolution test was conducted in a USP Apparatus 2 (paddle) at 37±0.5° C., 50 rpm, in a solution having 750 mL of 0.1 N HCl and 1000 mL of pH 6.8 buffer
FIG. 1 discloses the dissolution release amount for 25 mg quetiapine in tablet of reference listed drug, 3 mg paliperidone in raw form.

[3] = Dissolution of methacrylic acid coated samples in pH1.2 solvent; assay type: physicochemical; conditions: methacrylic acid coated samples with different encapsulation efficiency
Protocol: Further use carried out with different encapsulation efficiency of experiments, and the samples with different encapsulation efficiency were test pH1.2 solvent dissolve. At the same time, it can be known that the results of the dissolution rate of paliperidone within 2 hours is not more than 10%. The present invention can be achieved effect of delayed release of paliperidone.

Structure (SMILES): Cc1nc2n(c(=O)c1CCN1CCC(c3noc4cc(F)ccc34)CC1)CCCC2O (stereo not shown) [paliperidone]
- half-life in patients' blood [1]: 20 to 28 h
- dissolution amount of paliperidone after pH change ([2]; after 120 minutes, pH increased from 1.2 to 6.8, slightly decreased): above 100%
- dissolution amount of paliperidone ([2]; less than 10 minutes, then maintained, pH 1.2): above 100%
- dissolution rate of paliperidone within 2 hours [3]: not more than 10%
